1 compound from patent US10034836B2, “Formulations of guanylate cyclase C agonists and methods of use” (SYNERGY PHARMACEUTICALS, INC., priority 2008, dated 2018) can be followed below.

The test system of the series is cynomolgus monkeys. In words: Repeated daily oral dose for 28 days in cynomolgus monkeys, stool consistency. To be noted: cynomolgus monkey, in vivo, 10 mg/kg. On the procedure:
FIG. 19: Determination of SP-304 dose that produced diarrhea in monkeys. Two groups of monkeys, male and female, were treated with a single dose of SP-304 per day continuously for 28 days (for each group, 0 and 75 mg/kg, n=5; 1, 10 mg/kg, n=4). Stool consistency and bowel frequency were noted every day. Results are presented as cumulative score for 28 days. The scoring used for stool consistency was as follows: 0: No stool, 1: Normal stool, 2: Loose/mushy stool and 3: Diarrhea/watery stool.
Male (n=4) and female (n=4) monkeys were given a daily dose (1 or 10 or 75 mg/kg body weight) of SP-304 repeatedly for 28 days. Effect of treatment on stool consistency was recorded three times a day. […] Therefore, SP-304 was used at 10 mg/kg body weight in the subsequent experiments.

Where a SMILES comes first, the peptide text is derived from it. Bridges are numbered along the chain shown (N, C = ends).

With `CC(C)C[C@H](NC(=O)[C@@H]1CSSC[C@@H]2NC(=O)[C@H](CC(C)C)NC(=O)[C@H](CCC(=O)O)NC(=O)[C@@H](NC(=O)[C@H](CCC(=O)O)NC(=O)[C@H](CC(=O)O)NC(=O)[C@@H](N)CC(N)=O)CSSC[C@H](NC(=O)[C@H](C)NC(=O)[C@H](C(C)C)NC(=O)[C@H](CC(N)=O)NC(=O)[C@H](C(C)C)NC2=O)C(=O)N[C@@H]([C@@H](C)O)C(=O)NCC(=O)N1)C(=O)O` [SP-304, Asn^1-Asp^2-Glu^3-Cys^4-Glu^5-Leu^6-Cys^7-Val^8-Asn^9-Val^10-Ala^11-Cys^12-Thr^13-Gly^14-Cys^15-Leu^16] (H-NDECELCVNVACTGCL-OH; disulfide 4-12, 7-15), the “effect on stool consistency in females” value was “severe diarrhea consistently”.
